Laboratory results reported in ChEMBL document CHEMBL1139561, “Biaryl isoxazolinone antibacterial agents” (Bioorg Med Chem Lett, 2005).
In brackets after ≈: the same amount, converted by molar mass.

Key:
[1] = Protective dose against Staphylococcus aureus in mice after 8 days of oral b.i.d. administration at 1 and 5 hr per interval (n=10); type: functional; details: read-out: PD50
[2] = Half life for compound in mouse was determined; type: ADME; details: in vivo
[3] = Area under curve concentration in mouse was determined; type: ADME; details: in vivo
Haemophilus influenzae = assay: Minimum inhibition concentration against Haemophilus influenzae strains; type: functional
[4] = Maximum serum concentration in mouse was determined; type: ADME, organism-based
Staphylococcus aureus [5] = assay: Minimum inhibition concentration against Staphylococcus aureus strains in presence of 0.5% calf serum; type: functional
Staphylococcus aureus [6] = assay: Minimum inhibition concentration against Staphylococcus aureus strains in presence of 1% calf serum; type: functional
Staphylococcus aureus [7] = assay: Minimum inhibition concentration against Staphylococcus aureus strains in presence of 16% calf serum; type: functional
Staphylococcus aureus [8] = assay: Minimum inhibition concentration against Staphylococcus aureus strains in presence of 2% calf serum; type: functional
Staphylococcus aureus [9] = assay: Minimum inhibition concentration against Staphylococcus aureus strains in presence of 32% calf serum; type: functional
Staphylococcus aureus [10] = assay: Minimum inhibition concentration against Staphylococcus aureus strains in presence of 4% calf serum; type: functional
Staphylococcus aureus [11] = assay: Minimum inhibition concentration against Staphylococcus aureus strains in presence of 8% calf serum; type: functional
[12] = Minimum inhibition concentration against Haemophilus influenzae strains; range is 2-8 […]; type: functional
Staphylococcus aureus [13] = assay: Minimum inhibition concentration against Staphylococcus aureus strains in presence of 0.03% calf serum; type: functional

CC(=O)NCn1cc(-c2ccc(C3=CCN(C(C)=O)CC3)cc2)c(=O)o1
ED50 [1]: 9 mg/kg/day | half-life [2]: 6.4 min | AUC [3]: 1.5 µg/h/mL | MIC (Haemophilus influenzae): 2 µg/mL (≈ 5.63 µM) | Cmax [4]: 2600 ng/mL | MIC (Staphylococcus aureus [5]): 0.25 µg/mL

COc1ccc(-c2ccc(-c3cn(CNC(C)=O)oc3=O)cc2)cc1OC
MIC (Haemophilus influenzae): 32 µg/mL (≈ 86.9 µM) | MIC (Staphylococcus aureus [6]): 0.25 µg/mL

CC(=O)NCn1cc(-c2ccc(-c3ccc([N+](=O)[O-])cc3)cc2)c(=O)o1
MIC (Haemophilus influenzae): > 32 µg/mL | MIC (Staphylococcus aureus [6]): 0.03 µg/mL

CC(=O)NCn1cc(-c2ccc(C3=CC[S+]([O-])CC3)cc2)c(=O)o1 (centres undefined)
ED50 [1]: 5.6 mg/kg/day | half-life [2]: 22.2 min | AUC [3]: 5.5 µg/h/mL | MIC (Haemophilus influenzae): 2 µg/mL (≈ 5.77 µM) | Cmax [4]: 8300 ng/mL | MIC (Staphylococcus aureus [6]): 0.5 µg/mL

CC(=O)NCn1cc(-c2ccc(C3CCNCC3)cc2)c(=O)o1
MIC (Haemophilus influenzae): 32 µg/mL (≈ 101 µM) | MIC (Staphylococcus aureus [7]): 32 µg/mL

CC(=O)NCn1cc(-c2ccc(-c3ccc(C#N)cc3)cc2)c(=O)o1
MIC (Haemophilus influenzae): 4 µg/mL (≈ 12 µM) | MIC (Staphylococcus aureus [8]): 0.06 µg/mL

CC(=O)NCn1cc(-c2ccc(C3CCN(C(C)=O)CC3)cc2)c(=O)o1
MIC (Haemophilus influenzae): 8 µg/mL (≈ 22.4 µM) | MIC (Staphylococcus aureus [6]): 1 µg/mL

CC(=O)NCn1cc(-c2ccc(-c3ccc(C(=O)O)c(F)c3)cc2)c(=O)o1
MIC (Staphylococcus aureus [9]; Staphylococcus aureus): 4 µg/mL | MIC (Haemophilus influenzae): 32 µg/mL (≈ 86.4 µM)

CC(=O)NCn1cc(-c2ccc(C3CCOCC3)cc2)c(=O)o1
MIC (Haemophilus influenzae): 32 µg/mL (≈ 101 µM) | MIC (Staphylococcus aureus [8]): 1 µg/mL

CC(=O)NCn1cc(-c2ccc(C3=CCN(C(=N)N)CC3)cc2)c(=O)o1
MIC (Haemophilus influenzae): 32 µg/mL (≈ 90 µM) | MIC (Staphylococcus aureus [7]): 8 µg/mL

CC(=O)NCn1cc(-c2ccc(-c3cc(C)cs3)cc2)c(=O)o1
MIC (Staphylococcus aureus [10]): 0.25 µg/mL | MIC (Haemophilus influenzae): > 64 µg/mL

COC(=O)c1ccc(-c2ccc(-c3cn(CNC(C)=O)oc3=O)cc2)cc1
MIC (Haemophilus influenzae): > 32 µg/mL | MIC (Staphylococcus aureus [5]): 0.06 µg/mL

CC(=O)NCn1cc(-c2ccc(-c3sccc3C=O)cc2)c(=O)o1
MIC (Haemophilus influenzae): 64 µg/mL (≈ 187 µM) | MIC (Staphylococcus aureus [6]): 0.5 µg/mL

CC(=O)NCn1cc(-c2ccc(C3=CCS(=O)(=O)CC3)cc2)c(=O)o1
ED50 [1]: 4 mg/kg/day | half-life [2]: 12.2 min | AUC [3]: 19.4 µg/h/mL | MIC (Haemophilus influenzae): 4 µg/mL (≈ 11 µM) | Cmax [4]: 17700 ng/mL | MIC (Staphylococcus aureus [6]): 0.5 µg/mL

CC(=O)NCn1cc(-c2ccc(-c3cccs3)cc2)c(=O)o1
MIC (Staphylococcus aureus [11]): 0.25 µg/mL | MIC [12]: 2 µg/mL (≈ 6.36 µM)

CC(=O)NCn1cc(-c2ccc(-c3ccc(C(=O)O)cc3)cc2)c(=O)o1
ED50 [1]: > 50 mg/kg/day | half-life [2]: 8.5 min | AUC [3]: 0.56 µg/h/mL | MIC (Haemophilus influenzae): 2 µg/mL (≈ 5.68 µM) | MIC (Staphylococcus aureus [11]): 1 µg/mL | Cmax [4]: 1700 ng/mL

CC(=O)NCn1cc(-c2ccc(C3CCN(C(=O)OC(C)(C)C)CC3)cc2)c(=O)o1
MIC (Haemophilus influenzae): 32 µg/mL (≈ 77 µM) | MIC (Staphylococcus aureus [7]): 8 µg/mL

CC(=O)NCn1cc(-c2ccc(-c3ccc(Cl)cc3)cc2)c(=O)o1
MIC (Haemophilus influenzae): > 32 µg/mL | MIC (Staphylococcus aureus [11]): 0.06 µg/mL

CC(=O)NCn1cc(-c2ccc(-c3ccc(Cl)s3)cc2)c(=O)o1
MIC (Haemophilus influenzae): 4 µg/mL (≈ 11.5 µM) | MIC (Staphylococcus aureus [11]): 0.06 µg/mL

CC(=O)NCn1cc(-c2ccc(-c3ccsc3)cc2)c(=O)o1
MIC (Haemophilus influenzae): 4 µg/mL (≈ 12.7 µM) | MIC (Staphylococcus aureus [13]): 0.03 µg/mL

CC(=O)NCn1cc(-c2ccc(-c3ccco3)cc2)c(=O)o1
MIC (Staphylococcus aureus [9]; Staphylococcus aureus): 1 µg/mL | MIC (Haemophilus influenzae): 16 µg/mL (≈ 53.6 µM)

CC(=O)NCn1cc(-c2ccc(-c3ccc(F)cc3F)cc2)c(=O)o1
MIC (Staphylococcus aureus [10]): 0.125 µg/mL | MIC (Haemophilus influenzae): 4 µg/mL (≈ 11.6 µM)

CC(=O)NCn1cc(-c2ccc(-c3ncn(C)n3)cc2)c(=O)o1
MIC (Haemophilus influenzae): > 64 µg/mL | MIC (Staphylococcus aureus [11]): 4 µg/mL

CC(=O)NCn1cc(-c2ccc(-c3cccc4ccccc34)cc2)c(=O)o1
MIC (Staphylococcus aureus [9]): 1 µg/mL | MIC (Staphylococcus aureus [9]; Staphylococcus aureus): 1 µg/mL | MIC (Haemophilus influenzae): > 32 µg/mL

CC(=O)NCn1cc(-c2ccc(-c3ccc(C(C)=O)cc3)cc2)c(=O)o1
MIC (Haemophilus influenzae): 4 µg/mL (≈ 11.4 µM) | MIC (Staphylococcus aureus [8]): 0.06 µg/mL

CC(=O)NCn1cc(-c2ccc(C3=CCOCC3)cc2)c(=O)o1
MIC (Haemophilus influenzae): 4 µg/mL (≈ 12.7 µM) | MIC (Staphylococcus aureus [6]): 0.25 µg/mL

CC(=O)NCn1cc(-c2ccc(C3=CCNCC3)cc2)c(=O)o1
MIC (Haemophilus influenzae): 16 µg/mL (≈ 51.1 µM) | MIC (Staphylococcus aureus [11]): 8 µg/mL

COc1ccccc1-c1ccc(-c2cn(CNC(C)=O)oc2=O)cc1
MIC (Haemophilus influenzae): 32 µg/mL (≈ 94.6 µM) | MIC (Staphylococcus aureus [11]): 0.5 µg/mL

CC(=O)NCn1cc(-c2ccc(-c3ccncc3)cc2)c(=O)o1
ED50 [1]: 8.9 mg/kg/day | half-life [2]: 203 min | AUC [3]: 56 µg/h/mL | MIC (Haemophilus influenzae): 2 µg/mL (≈ 6.47 µM) | Cmax [4]: 17700 ng/mL | MIC (Staphylococcus aureus [5]): 0.06 µg/mL
